In ChEMBL document CHEMBL3045411, “Efficacy and effects on yield of different fungicides for control of wet bubble disease of mushroom caused by the mycoparasite Mycogone perniciosa” (2010):
In brackets after ≈: the same amount, converted by molar mass.

tested on: Mycogone perniciosa; assay: Antimicrobial activity against Mycogone perniciosa isolates assessed as inhibition of mycelial growth after 12 days; type: functional; settings: 288 h, read-out: ED50 (the source's name)

First: COC(=O)Nc1nc2ccccc2[nH]1 [CARBENDAZIM]
Second: c1ccc2[nH]c(-c3cscn3)nc2c1 [THIABENDAZOLE]
The EC50 of the first is 3.5-fold lower: 0.065 µg/mL (≈ 0.34 µM) for the first, 0.225 µg/mL (≈ 1.12 µM) for the second.

Going from CC(C)NC(=O)N1CC(=O)N(c2cc(Cl)cc(Cl)c2)C1=O [IPRODIONE] to COC(=O)NC(=S)Nc1ccccc1NC(=S)NC(=O)OC [THIOPHANATE METHYL], the EC50 falls from 2.69 µg/mL (≈ 8.14 µM) to 0.773 µg/mL (≈ 2.26 µM) (3.5-fold).
